This is an account of results in ChEMBL document CHEMBL4428048, “Discovery of Novel Polo-Like Kinase 1 Polo-Box Domain Inhibitors to Induce Mitotic Arrest in Tumor Cells” (J Med Chem, 2016).

SMILES strings stand for the structures. Calls of active or inactive are those of the source. The calls are words filed in the database; no cut-off is given here.

The test system of test [1] is RKO. Description: Growth inhibition of human RKO cells at 20 uM after 72 hrs by MTT assay relative to control. The settings on record: read-out: GI. Format: functional. In general terms: Formazan colour is commonly taken as a measure of viable cells.
In test [2] the test system is HeLa. Description: Induction of mitotic arrest in human HeLa cells assessed as increase in level of 4N DNA cells at 5 uM after 24 hrs by propidium iodide staining-based FACS analysis. Format: functional, cell-based. (Flow cytometry measures light scatter and fluorescence of single cells or particles in a stream.)
In test [3] the test system is HeLa. Description: cells. Particulars: Homo sapiens, 72 h.
Description: Growth inhibition of human HeLa cells after 72 hrs by MTT assay
The test system of test [4] is U2OS. The test can be described thus: Growth inhibition of human U2OS cells at 20 uM after 72 hrs by MTT assay relative to control. Type of test: functional. The settings on record: read-out: GI.
The test system of test [5] is HeLa. The test can be described thus: Induction of mitotic arrest in human HeLa cells assessed as increase in level of 4N DNA cells at 30 uM after 24 hrs by propidium iodide staining-based FACS analysis. Type of test: functional, cell-based.
The test system of test [6] is HeLa. The test can be described thus: Induction of mitotic arrest in human HeLa cells assessed as increase in level of 4N DNA cells after 24 hrs by propidium iodide staining-based FACS analysis. Type of test: functional, cell-based.
Test [7] deals with HeLa. Description: Induction of mitotic arrest in human HeLa cells assessed as 4N DNA cells at 100 uM after 24 hrs by propidium iodide staining-based FACS analysis relative to control. Format: functional.
Test [8] addresses Serine/threonine-protein kinase PLK2 (Homo sapiens, UniProt Q9NYY3). The test can be described thus: Binding affinity to GST-tagged PLK2 PBD (355 to 685 residues) (unknown origin) by NT-647 dye-based microscale thermophoresis analysis. (In general: MST reads how a fluorescent partner responds to local heating, with and without ligand.)
The subject of test [9] is HeLa. The test can be described thus: Induction of mitotic arrest in human HeLa cells by propidium iodide staining-based FACS analysis. Format: functional, cell-based.
Test [10] deals with HeLa. The test can be described thus: Growth inhibition of human HeLa cells at 100 uM after 72 hrs by MTT assay relative to control. Type of test: functional. Particulars: read-out: GI.
Test [11] concerns RKO. The test can be described thus: Growth inhibition of human RKO cells at 100 uM after 72 hrs by MTT assay relative to control. Type of test: functional. The settings on record: read-out: GI.
Test [12] deals with U2OS. Description: Growth inhibition of human U2OS cells at 100 uM after 72 hrs by MTT assay relative to control. Format: functional. The settings on record: read-out: GI.
For test [13], the system named is HeLa. The test can be described thus: Induction of mitotic arrest in human HeLa cells assessed as increase in level of 4N DNA cells at 40 uM after 24 hrs by propidium iodide staining-based FACS analysis. Type of test: functional, cell-based.
For test [14], the system named is RKO. The test can be described thus: Growth inhibition of human RKO cells at 50 uM after 72 hrs by MTT assay relative to control. Format: functional. The settings on record: read-out: GI.
The test system of test [15] is HeLa. Description: Growth inhibition of human HeLa cells at 50 uM after 72 hrs by MTT assay relative to control. The settings on record: read-out: GI. Type of test: functional.
Test [16] concerns U2OS. The test can be described thus: Growth inhibition of human U2OS cells at 50 uM after 72 hrs by MTT assay relative to control. Type of test: functional. Particulars: read-out: GI.
In test [17] the test system is RKO. Description: cells. Particulars: Homo sapiens, 72 h.
Description: Growth inhibition of human RKO cells after 72 hrs by MTT assay
The target in test [18] is Serine/threonine-protein kinase PLK1 (Homo sapiens, UniProt P53350). The test can be described thus: Binding affinity to GST-tagged PLK1 PBD (327 to 603 residues) (unknown origin) by NT-647 dye-based microscale thermophoresis analysis.
Sequence of Serine/threonine-protein kinase PLK1 (Homo sapiens, UniProt P53350) (P53350 whole entry, the tested form may be a part): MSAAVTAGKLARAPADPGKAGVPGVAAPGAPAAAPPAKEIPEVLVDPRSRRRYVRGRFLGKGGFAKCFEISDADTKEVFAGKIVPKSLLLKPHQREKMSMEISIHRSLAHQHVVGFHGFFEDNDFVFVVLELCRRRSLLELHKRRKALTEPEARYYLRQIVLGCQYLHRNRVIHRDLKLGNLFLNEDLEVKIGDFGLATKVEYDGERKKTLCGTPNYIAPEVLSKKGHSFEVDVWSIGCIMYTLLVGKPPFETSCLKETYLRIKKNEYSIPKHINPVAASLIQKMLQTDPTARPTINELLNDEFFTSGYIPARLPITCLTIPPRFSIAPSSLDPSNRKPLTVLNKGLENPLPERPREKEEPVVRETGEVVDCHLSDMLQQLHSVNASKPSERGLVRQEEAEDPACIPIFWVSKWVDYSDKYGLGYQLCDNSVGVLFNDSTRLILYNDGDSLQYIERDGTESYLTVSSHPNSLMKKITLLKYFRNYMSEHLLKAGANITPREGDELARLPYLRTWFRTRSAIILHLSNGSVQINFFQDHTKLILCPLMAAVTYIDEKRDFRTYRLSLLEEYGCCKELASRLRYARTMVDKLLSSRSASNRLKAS
For test [19], the target named is Serine/threonine-protein kinase PLK1 (Homo sapiens, UniProt P53350, W414A). Description: Binding affinity to GST-tagged PLK1 PBD W414A mutant (unknown origin) by NT-647 dye-based microscale thermophoresis analysis.
Sequence of Serine/threonine-protein kinase PLK1 (Homo sapiens, UniProt P53350, W414A) (P53350 2-603 W414A limits assumed): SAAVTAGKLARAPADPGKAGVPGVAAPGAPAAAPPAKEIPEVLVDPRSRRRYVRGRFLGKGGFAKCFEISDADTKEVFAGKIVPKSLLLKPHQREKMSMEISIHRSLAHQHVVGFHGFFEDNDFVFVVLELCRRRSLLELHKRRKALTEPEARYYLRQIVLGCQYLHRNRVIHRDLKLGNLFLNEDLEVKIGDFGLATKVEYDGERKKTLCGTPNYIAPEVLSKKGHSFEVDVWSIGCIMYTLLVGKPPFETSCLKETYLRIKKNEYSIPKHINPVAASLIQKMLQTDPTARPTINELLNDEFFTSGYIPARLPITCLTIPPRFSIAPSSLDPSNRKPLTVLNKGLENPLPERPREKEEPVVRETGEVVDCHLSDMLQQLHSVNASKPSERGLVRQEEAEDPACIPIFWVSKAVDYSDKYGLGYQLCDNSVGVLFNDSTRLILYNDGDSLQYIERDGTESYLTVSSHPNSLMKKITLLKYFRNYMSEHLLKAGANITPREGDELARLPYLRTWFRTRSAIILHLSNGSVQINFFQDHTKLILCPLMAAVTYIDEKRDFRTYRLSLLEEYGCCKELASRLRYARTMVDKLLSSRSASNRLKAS
Test [20] concerns U2OS. Description: cells. The settings on record: Homo sapiens, 72 h.
Description: Growth inhibition of human U2OS cells after 72 hrs by MTT assay
Test [21] deals with HeLa. The test can be described thus: Induction of mitotic arrest in human HeLa cells assessed as increase in level of 4N DNA cells at 10 uM after 24 hrs by propidium iodide staining-based FACS analysis. Type of test: functional, cell-based.

Sequence of Serine/threonine-protein kinase PLK2 (Q9NYY3 whole entry, the tested form may be a part): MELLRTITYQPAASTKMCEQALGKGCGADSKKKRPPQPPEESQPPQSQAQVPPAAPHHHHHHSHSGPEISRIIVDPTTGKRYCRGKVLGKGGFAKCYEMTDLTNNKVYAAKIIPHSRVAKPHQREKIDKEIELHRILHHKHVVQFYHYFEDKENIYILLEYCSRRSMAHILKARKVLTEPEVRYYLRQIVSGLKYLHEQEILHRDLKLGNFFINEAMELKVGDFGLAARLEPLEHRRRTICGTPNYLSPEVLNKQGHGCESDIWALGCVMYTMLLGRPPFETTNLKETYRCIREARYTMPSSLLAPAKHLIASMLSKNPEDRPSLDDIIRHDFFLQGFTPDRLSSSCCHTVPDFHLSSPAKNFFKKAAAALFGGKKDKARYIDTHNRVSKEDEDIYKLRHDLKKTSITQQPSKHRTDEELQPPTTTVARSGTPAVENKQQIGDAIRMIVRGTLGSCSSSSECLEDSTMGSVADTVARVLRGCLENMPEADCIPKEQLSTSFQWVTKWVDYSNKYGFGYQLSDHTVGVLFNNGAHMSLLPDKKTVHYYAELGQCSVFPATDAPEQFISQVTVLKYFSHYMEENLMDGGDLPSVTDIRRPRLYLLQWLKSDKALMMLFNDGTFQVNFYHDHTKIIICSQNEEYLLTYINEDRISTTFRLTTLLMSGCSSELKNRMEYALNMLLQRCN

As usually defined, the EC50 is the concentration giving half of the maximal effect. In the case of `O=C(N/N=C/c1ccc(Br)cc1)c1n[nH]c2c1CCCC2`, the inhibition of growth at 20 µM was 37% in the test on RKO [1] and 59.8% in the test with U2OS [4]. Also, the result in the test with HeLa [2] was Active. The molecule also returned an EC50 with HeLa [3] of 2.6 µM.

Turning to `CCc1ccc(/C=N/NC(=O)c2sc3cc(Cl)ccc3c2Cl)s1`, the result in the test on HeLa [5] was Active. Further, the EC50 in the test on HeLa [6] amounted to 8.6 µM.

A word on the Kd: it is a measure of binding affinity in units of concentration. A high value points to weaker binding. For the molecule `CC1=CC(=O)C(C(C)C)=C/C1=N/OC(=O)c1ccccc1C`, the Activity with HeLa [7] stood at 36%. In [8], the dissociation constant Kd turned out to be 87.3 µM.

With `Cc1ccc(/C(=N/S(=O)(=O)c2ccccc2)NC(=S)Nc2ccc([N+](=O)[O-])cc2)cc1`, the result in the test on HeLa [5] was Active. For the same molecule, in the test on HeLa [6], the Activity result was “Dose-dependent effect” and the EC50 came to 21.1 µM. In test [8], this molecule yielded an equilibrium dissociation constant (Kd) of 159 µM.

`CC1=C/C(=N/OC(=O)c2ccccc2C)C(C)=CC1=O` came in with an EC50 with HeLa [9] of 15 µM.

For the molecule `Cc1ccc2nc(C)cc(SCC(=O)N/N=C/c3ccc(Cl)cc3)c2c1`, the inhibition of growth at 100 µM with HeLa [10] stood at 36.7%; in the test on RKO [11], 34%; in the test on U2OS [12], 25.5%. Moreover, the result in the test with HeLa [5] was Active. The EC50 in the test with HeLa [6] turned out to be 18.7 µM.

`CCCc1oc2ccc(NS(=O)(=O)c3cccs3)cc2c1C(=O)OCC`: the outcome in the test with HeLa [13] was Active. Moreover, the inhibition of growth at 50 µM in the test on RKO [14] came out at 39.4%; in the test with HeLa [15], 31.8%. Moreover, the EC50 in the test with HeLa [6] was determined as 44.8 µM.

With `O=C(CCn1c2ccccc2c2ccccc21)N/N=C/c1cc(Cl)cc(Cl)c1`, the inhibition of growth at 50 µM was 48.8% in the test with U2OS [16] and 45.7% in the test with HeLa [15]. The EC50 in the test with RKO [17] came out at 19.2 µM; with HeLa [6], 20.4 µM. Besides, the outcome with HeLa [5] was Active. In test [8], this molecule returned a Kd of 210 µM.

Turning to `Cc1ccccc1OCC(=O)N/N=C/c1ccc2c(c1)OCCO2`, the Kd worked out at 44.2 µM in test [18], 412 µM in test [19] and 197 µM in test [8]. In addition, the inhibition of growth at 100 µM in the test with HeLa [10] was found to be 40.2%; in the test on RKO [11], 35.3%. For the same molecule, the result in the test on HeLa [5] was Active. Besides, the EC50 with HeLa [6] worked out at 25.6 µM; with U2OS [20], 37.8 µM.

Turning to `CCn1c2ccccc2c2cc(/C=N/NC(=O)c3ccccc3[N+](=O)[O-])ccc21`, the concentration giving a half-maximal response (EC50) with HeLa [3] was determined as 15 µM; with HeLa [6] it was 5.3 µM. The inhibition of growth at 50 µM in the test on RKO [14] amounted to 43%; in the test on U2OS [16], 41.7%. In addition, in the test on HeLa [21], the outcome was Active.

Take `CCN(CC)c1ccc(NC(=O)/C=C/c2cccc3ccccc23)cc1`: the inhibition of growth at 50 µM in the test with RKO [14] came to 34%; with HeLa [15], 31.2%. Moreover, the result in the test on HeLa [5] was Active. In the test on U2OS [20], this molecule had an EC50 of 18.1 µM.

As to `CCn1c2ccccc2c2cc(/C=N/NC(=O)c3cccc(Cl)c3)ccc21`, the half-maximal effective concentration (EC50) in the test on HeLa [3] was determined as 15.6 µM; with RKO [17] it was 10 µM; with HeLa [6], 4.4 µM. The inhibition of growth at 50 µM in the test on U2OS [16] was 42.2%. In the test with HeLa [21], the outcome was Active.
